Test results reported in ChEMBL document CHEMBL1139605, “Novel ketal ligands for the glucocorticoid receptor: in vitro and in vivo activity” (Bioorg Med Chem Lett, 2005).

Key:
Progesterone receptor = molecular target: T1, Progesterone receptor (Homo sapiens, UniProt P06401); test: Binding affinity for human progesterone receptor
T1 sequence (P06401 whole entry): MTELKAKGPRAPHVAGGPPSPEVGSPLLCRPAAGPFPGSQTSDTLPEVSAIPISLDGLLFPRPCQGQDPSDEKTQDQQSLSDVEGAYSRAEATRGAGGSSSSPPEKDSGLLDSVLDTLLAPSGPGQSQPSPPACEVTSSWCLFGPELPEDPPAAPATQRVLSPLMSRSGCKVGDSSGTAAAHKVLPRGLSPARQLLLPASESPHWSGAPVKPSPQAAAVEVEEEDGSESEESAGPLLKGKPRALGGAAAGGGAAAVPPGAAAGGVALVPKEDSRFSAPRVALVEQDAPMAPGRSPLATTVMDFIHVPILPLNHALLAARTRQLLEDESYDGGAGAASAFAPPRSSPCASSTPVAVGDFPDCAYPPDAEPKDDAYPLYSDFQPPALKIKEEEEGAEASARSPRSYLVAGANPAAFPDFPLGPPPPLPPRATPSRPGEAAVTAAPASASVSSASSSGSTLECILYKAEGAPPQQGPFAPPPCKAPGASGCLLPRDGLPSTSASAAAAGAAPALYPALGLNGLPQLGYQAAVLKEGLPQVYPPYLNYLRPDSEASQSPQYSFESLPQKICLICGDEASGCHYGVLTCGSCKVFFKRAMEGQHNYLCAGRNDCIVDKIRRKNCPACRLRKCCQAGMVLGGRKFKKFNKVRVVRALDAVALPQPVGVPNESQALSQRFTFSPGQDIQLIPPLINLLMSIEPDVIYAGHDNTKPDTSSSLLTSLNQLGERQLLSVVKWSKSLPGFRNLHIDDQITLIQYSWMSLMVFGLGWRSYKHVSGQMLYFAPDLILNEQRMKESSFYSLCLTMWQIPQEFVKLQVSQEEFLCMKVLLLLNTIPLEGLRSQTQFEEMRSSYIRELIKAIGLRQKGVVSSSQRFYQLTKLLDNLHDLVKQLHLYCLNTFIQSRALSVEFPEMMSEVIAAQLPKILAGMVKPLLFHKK

Glucocorticoid receptor [1] = molecular target: T2, Glucocorticoid receptor (Homo sapiens, UniProt P04150); test: Binding affinity for human glucocorticoid receptor
T2 sequence (P04150 whole entry): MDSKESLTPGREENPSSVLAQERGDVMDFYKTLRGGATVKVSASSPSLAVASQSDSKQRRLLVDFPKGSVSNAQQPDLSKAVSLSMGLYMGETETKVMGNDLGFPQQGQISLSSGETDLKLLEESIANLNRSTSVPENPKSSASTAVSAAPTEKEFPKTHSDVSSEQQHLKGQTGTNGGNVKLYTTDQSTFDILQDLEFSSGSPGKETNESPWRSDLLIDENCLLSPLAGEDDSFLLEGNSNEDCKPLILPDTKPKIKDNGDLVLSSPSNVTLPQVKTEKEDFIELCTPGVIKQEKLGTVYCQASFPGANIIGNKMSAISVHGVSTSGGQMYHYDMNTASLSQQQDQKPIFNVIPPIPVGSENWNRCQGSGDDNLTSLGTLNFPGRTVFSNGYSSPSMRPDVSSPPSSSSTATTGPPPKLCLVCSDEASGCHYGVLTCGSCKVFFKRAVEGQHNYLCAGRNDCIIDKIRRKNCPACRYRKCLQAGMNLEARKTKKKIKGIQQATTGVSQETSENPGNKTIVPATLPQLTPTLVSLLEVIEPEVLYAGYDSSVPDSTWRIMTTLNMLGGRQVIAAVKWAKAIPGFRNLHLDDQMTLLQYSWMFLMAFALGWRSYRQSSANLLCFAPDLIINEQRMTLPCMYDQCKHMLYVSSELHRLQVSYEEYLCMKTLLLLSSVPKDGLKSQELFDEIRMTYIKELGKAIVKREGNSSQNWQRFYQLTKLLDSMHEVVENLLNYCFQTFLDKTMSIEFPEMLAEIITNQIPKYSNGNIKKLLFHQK

Estrogen receptor beta = Estrogen receptor beta (Homo sapiens, UniProt Q92731); test: Binding affinity for human estrogen receptor beta
Estrogen receptor beta, sequence (Q92731 whole entry): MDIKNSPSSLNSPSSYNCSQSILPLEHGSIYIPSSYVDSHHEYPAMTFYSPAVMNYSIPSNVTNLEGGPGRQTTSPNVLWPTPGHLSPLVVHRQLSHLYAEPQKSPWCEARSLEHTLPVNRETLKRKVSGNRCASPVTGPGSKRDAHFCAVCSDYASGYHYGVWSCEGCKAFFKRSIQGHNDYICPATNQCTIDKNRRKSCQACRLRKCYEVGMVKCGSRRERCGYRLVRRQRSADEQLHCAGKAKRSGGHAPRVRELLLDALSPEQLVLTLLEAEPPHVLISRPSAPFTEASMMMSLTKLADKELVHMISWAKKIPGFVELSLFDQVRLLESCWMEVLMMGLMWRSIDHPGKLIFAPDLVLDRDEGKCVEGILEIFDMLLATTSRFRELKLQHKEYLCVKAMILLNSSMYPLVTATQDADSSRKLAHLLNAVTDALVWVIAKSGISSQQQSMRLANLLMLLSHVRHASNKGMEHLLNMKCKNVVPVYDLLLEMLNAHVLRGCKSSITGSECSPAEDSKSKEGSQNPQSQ

Estrogen receptor = molecular target: T3, Estrogen receptor (Homo sapiens, UniProt P03372); test: Binding affinity for human estrogen receptor alpha
T3 sequence (P03372 whole entry): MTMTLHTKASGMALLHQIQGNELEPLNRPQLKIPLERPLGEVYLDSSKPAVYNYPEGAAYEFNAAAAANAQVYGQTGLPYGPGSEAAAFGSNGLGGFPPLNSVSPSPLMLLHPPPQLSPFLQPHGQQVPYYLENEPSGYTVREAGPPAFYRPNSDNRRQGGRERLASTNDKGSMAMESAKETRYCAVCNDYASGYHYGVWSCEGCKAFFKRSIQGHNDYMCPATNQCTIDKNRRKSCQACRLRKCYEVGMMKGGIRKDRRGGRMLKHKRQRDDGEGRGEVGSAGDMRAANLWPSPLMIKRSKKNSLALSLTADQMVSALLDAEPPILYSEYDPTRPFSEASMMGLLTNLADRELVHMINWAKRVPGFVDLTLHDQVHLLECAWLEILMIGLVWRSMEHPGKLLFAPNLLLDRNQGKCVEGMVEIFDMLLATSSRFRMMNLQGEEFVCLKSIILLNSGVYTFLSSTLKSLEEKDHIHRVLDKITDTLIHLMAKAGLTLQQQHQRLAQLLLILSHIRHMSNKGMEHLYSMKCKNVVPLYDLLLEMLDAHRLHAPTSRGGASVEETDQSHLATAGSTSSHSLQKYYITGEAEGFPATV

A549 [2] = test: Effective concentration for inhibition of interleukin-6 in human A549 lung carcinoma cell line using 65% radiolabeled Dexamethasone; type: functional, cell-based
Glucocorticoid receptor [3] = molecular target: T2, Glucocorticoid receptor; test: Inhibition of human glucocorticoid receptor alpha isoform
[4] = molecular target: T4, Mineralocorticoid receptor (Rattus norvegicus, UniProt P22199); test: Binding affinity for rat mineralocorticoid receptor
T4 sequence (P22199 whole entry): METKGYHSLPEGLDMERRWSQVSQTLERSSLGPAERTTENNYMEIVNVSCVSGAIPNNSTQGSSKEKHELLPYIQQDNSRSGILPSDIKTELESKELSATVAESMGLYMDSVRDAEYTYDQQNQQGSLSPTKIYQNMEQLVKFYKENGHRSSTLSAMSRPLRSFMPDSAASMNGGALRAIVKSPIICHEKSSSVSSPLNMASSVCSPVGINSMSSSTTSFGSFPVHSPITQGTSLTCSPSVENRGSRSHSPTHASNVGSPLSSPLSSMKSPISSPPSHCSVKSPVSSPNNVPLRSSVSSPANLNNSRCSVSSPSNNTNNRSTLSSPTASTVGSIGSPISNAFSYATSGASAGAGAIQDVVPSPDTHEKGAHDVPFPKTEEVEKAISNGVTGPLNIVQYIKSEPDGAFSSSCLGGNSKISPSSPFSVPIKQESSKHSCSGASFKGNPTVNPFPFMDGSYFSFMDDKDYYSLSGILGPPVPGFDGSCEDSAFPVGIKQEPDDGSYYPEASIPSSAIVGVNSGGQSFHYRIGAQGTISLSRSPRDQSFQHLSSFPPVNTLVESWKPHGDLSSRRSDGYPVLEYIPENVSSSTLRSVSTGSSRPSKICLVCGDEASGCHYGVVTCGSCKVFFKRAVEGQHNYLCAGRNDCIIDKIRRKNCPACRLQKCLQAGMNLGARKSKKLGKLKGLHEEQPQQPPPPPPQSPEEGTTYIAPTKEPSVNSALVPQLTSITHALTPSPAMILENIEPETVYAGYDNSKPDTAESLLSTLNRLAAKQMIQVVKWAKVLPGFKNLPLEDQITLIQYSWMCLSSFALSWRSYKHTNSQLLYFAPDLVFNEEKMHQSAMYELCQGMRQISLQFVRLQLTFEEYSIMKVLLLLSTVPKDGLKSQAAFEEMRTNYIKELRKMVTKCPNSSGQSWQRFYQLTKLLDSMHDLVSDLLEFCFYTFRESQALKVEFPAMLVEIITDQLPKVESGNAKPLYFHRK

Mus musculus [5] = species: Mus musculus; test: Effective concentration required for inhibition of interleukin-6 in mouse thioglycolate-elicited peritoneal exudate cell line using 81% radiolabeled Dexamethasone; type: functional
A549 [6] = test: Effective concentration required for inhibition of interleukin-6 in human A549 lung carcinoma cell line using […]% radiolabeled Dexamethasone; type: functional, cell-based
A549 [7] = test: Effective concentration for inhibition of interleukin-6 in human A549 lung carcinoma cell line using […]% radiolabeled Dexamethasone; type: functional, cell-based
Mus musculus [8] = species: Mus musculus; test: Effective concentration required for inhibition of interleukin-6 in mouse thioglycolate-elicited peritoneal exudate cell line using 79% radiolabeled Dexamethasone; type: functional
A549 [9] = test: Effective concentration for inhibition of interleukin-6 in human A549 lung carcinoma cell line using 67% radiolabeled Dexamethasone; type: functional, cell-based
HepG2 = test: Effective concentration required for induction of tyrosine aminotransferase in human HepG2 cells using 81% radiolabeled Dexamethasone; type: functional, cell-based
[10] = Effective concentration required for induction of glutamine synthetase in human skeletal muscle cells using 97% radiolabeled Dexamethasone; type: functional
Mus musculus [11] = species: Mus musculus; test: Effective concentration required for inhibition of interleukin-6 in mouse thioglycolate-elicited peritoneal exudate cell line using 95% radiolabeled Dexamethasone; type: functional
A549 [12] = test: Effective concentration required for inhibition of interleukin-6 in human A549 lung carcinoma cell line using 102% radiolabeled Dexamethasone; type: functional, cell-based
A549 [13] = test: Effective concentration for inhibition of interleukin-6 in human A549 lung carcinoma cell line using 69% radiolabeled Dexamethasone; type: functional, cell-based
[14] = Effective concentration required for induction of glutamine synthetase in human skeletal muscle cells using 58% radiolabeled Dexamethasone; type: functional
A549 [15] = test: Effective concentration for inhibition of interleukin-6 in human A549 lung carcinoma cell line using 32% radiolabeled Dexamethasone; type: functional, cell-based
Mus musculus [16] = species: Mus musculus; test: Effective concentration required for inhibition of interleukin-6 in mouse thioglycolate-elicited peritoneal exudate cell line using 66% radiolabeled Dexamethasone; type: functional

## C=C[C@H]1OC2(CCCC3=Cc4c(cnn4-c4ccc(F)cc4)C[C@@]32C)O[C@@H]1C=C
Progesterone receptor
  IC50: > 1000 nM
Glucocorticoid receptor [1]
  IC50: 1.2 nM
Estrogen receptor beta
  IC50: > 10000 nM
Estrogen receptor
  IC50: > 10000 nM
A549 [2]
  EC50: 5.3 nM
Glucocorticoid receptor [3]
  IC50: 1.2 nM
[4]
  IC50: 7400 nM
Mus musculus [5]
  EC50: 8.7 nM

## CCCC[C@H]1OC2(CCCC3=Cc4c(cnn4-c4ccc(F)cc4)C[C@@]32C)O[C@@H]1CCCC
A549 [6]
  EC50: 92 nM
Glucocorticoid receptor [3]
  IC50: 22 nM

## CC1(C)COC2(CCC3=Cc4c(cnn4-c4ccc(F)cc4)C[C@@]32C)OC1
A549 [7]
  EC50: 12 nM
Glucocorticoid receptor [3]
  IC50: 28 nM

## C/C=C/[C@H]1OC2(CCCC3=Cc4c(cnn4-c4ccc(F)cc4)C[C@@]32C)O[C@@H]1/C=C/C
Mus musculus [8]
  EC50: 37 nM
A549 [9]
  EC50: 7.8 nM
Glucocorticoid receptor [3]
  IC50: 2.5 nM

## C[C@]12Cc3cnn(-c4ccc(F)cc4)c3C=C1CC[C@@]21OC[C@H](c2ccccc2)O1
Glucocorticoid receptor [3]
  IC50: 65 nM

## C[C@]12Cc3cnn(-c4ccc(F)cc4)c3C=C1CC[C@@]21OC[C@@H](c2ccccc2)O1
Glucocorticoid receptor [3]
  IC50: 26 nM

## C[C@]12Cc3cnn(-c4ccc(F)cc4)c3C=C1CCCC21OCCO1
Progesterone receptor
  IC50: > 1000 nM
Glucocorticoid receptor [1]
  IC50: 14 nM
Estrogen receptor beta
  IC50: > 10000 nM
Estrogen receptor
  IC50: > 10000 nM
Glucocorticoid receptor [3]
  IC50: 14 nM
[4]
  IC50: 7560 nM

## C=C[C@H]1CO[C@@]2(CCC3=Cc4c(cnn4-c4ccc(F)cc4)C[C@@]32C)O1
Glucocorticoid receptor [3]
  IC50: 49 nM

## C[C@H]1OC2(CCC3=Cc4c(cnn4-c4ccc(F)cc4)C[C@@]32C)O[C@@H]1C
Progesterone receptor
  IC50: > 1000 nM
Glucocorticoid receptor [1]
  IC50: 24 nM
Estrogen receptor beta
  IC50: > 10000 nM
Estrogen receptor
  IC50: > 10000 nM
Glucocorticoid receptor [3]
  IC50: 24 nM
[4]
  IC50: > 10000 nM

## C[C@]12Cc3cnn(-c4ccc(F)cc4)c3C=C1CC[C@]21OC[C@H](c2ccccc2)O1
Glucocorticoid receptor [3]
  IC50: 12 nM

## C[C@@H]1C[C@@H](C)OC2(CCCC3=Cc4c(cnn4-c4ccc(F)cc4)C[C@@]32C)O1 (some centres undefined)
Glucocorticoid receptor [3]
  IC50: 8.3 nM

## C[C@]12Cc3cnn(-c4ccc(F)cc4)c3C=C1CCC21OCCO1 (stereo in doubt; 2)
HepG2
  EC50: 211 nM
[10]
  EC50: 32 nM
Glucocorticoid receptor [3]
  IC50: 13.8 nM
Mus musculus [11]
  EC50: 5.7 nM
A549 [12]
  EC50: 4.5 nM

## C=C[C@@H]1CO[C@@]2(CCC3=Cc4c(cnn4-c4ccc(F)cc4)C[C@@]32C)O1
Glucocorticoid receptor [3]
  IC50: 38 nM

## C[C@]12Cc3cnn(-c4ccc(F)cc4)c3C=C1CCC21OCCO1 (stereo in doubt; 13)
Progesterone receptor
  IC50: > 1000 nM
Glucocorticoid receptor [1]
  IC50: 73 nM
Estrogen receptor beta
  IC50: > 10000 nM
Estrogen receptor
  IC50: > 10000 nM
A549 [13]
  EC50: 28 nM
Glucocorticoid receptor [3]
  IC50: 73 nM
[4]
  IC50: > 10000 nM

## CCC[C@H]1OC2(CCCC3=Cc4c(cnn4-c4ccc(F)cc4)C[C@@]32C)O[C@@H]1CCC
[14]
  EC50: 29 nM
Glucocorticoid receptor [3]
  IC50: 8.9 nM

## C[C@@H]1C[C@@H](C)OC2(CCC3=Cc4c(cnn4-c4ccc(F)cc4)C[C@@]32C)O1 (stereo in doubt; form 2)
Glucocorticoid receptor [3]
  IC50: 8.4 nM

## CC[C@H]1OC2(CCCC3=Cc4c(cnn4-c4ccc(F)cc4)C[C@@]32C)O[C@@H]1CC
Mus musculus [8]
  EC50: 78 nM
Glucocorticoid receptor [3]
  IC50: 5.5 nM
A549 [15]
  EC50: 19 nM

## C[C@H]1OC2(CCCC3=Cc4c(cnn4-c4ccc(F)cc4)C[C@@]32C)O[C@@H]1C
Glucocorticoid receptor [3]
  IC50: 10 nM

## C[C@]12Cc3cnn(-c4ccc(F)cc4)c3C=C1CCCC21O[C@H](c2ccccc2)[C@@H](c2ccccc2)O1
Mus musculus [16]
  EC50: 26 nM
Glucocorticoid receptor [3]
  IC50: 10 nM
